Values after ≈ are worked out from the molar mass of the structure shown. Active and inactive are the calls of the source. The calls are words filed in the database; no cut-off is given here.
Key:
[1] = target: T1, Interleukin-8 receptors, CXCR1/CXCR2 (Homo sapiens) (UniProt P25025+P25024); experiment: Inhibition of CXCR1/2 pathway in human A498 cells assessed as reduction in AKT phosphorylation at 2.5 uM incubated for 24 to 48 hrs by immunoblot analysis; format: functional, cell-based; conditions: time 24-48 hrs
[2] = Stability in human microsomes assessed as intrinsic clearance; format: ADME, Microsome
[3] = target: Phosphorylase b kinase gamma catalytic chain, liver/testis isoform (Homo sapiens) (UniProt P15735); experiment: Inhibition of PHKG2 (unknown origin) at 10 uM in presence of ATP at Km concentration
[4] = target: Aurora kinase B (Homo sapiens) (UniProt Q96GD4); experiment: Inhibition of AURKB (unknown origin) at 10 uM in presence of ATP at Km concentration
Sequence of Aurora kinase B (Homo sapiens) (Q96GD4 whole entry): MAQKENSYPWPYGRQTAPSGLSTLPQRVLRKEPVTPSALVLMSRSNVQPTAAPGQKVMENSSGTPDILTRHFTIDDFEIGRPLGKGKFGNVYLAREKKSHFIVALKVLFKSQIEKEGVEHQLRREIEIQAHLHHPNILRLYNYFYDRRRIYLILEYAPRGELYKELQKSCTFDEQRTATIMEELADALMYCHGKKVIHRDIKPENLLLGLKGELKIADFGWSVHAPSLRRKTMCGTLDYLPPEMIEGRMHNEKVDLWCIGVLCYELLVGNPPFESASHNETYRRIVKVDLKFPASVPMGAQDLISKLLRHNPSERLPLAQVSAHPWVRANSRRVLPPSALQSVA

A498 [5] = experiment: Antimetastatic activity against human A498 cells labeled with vybrant DiD cell-labeling solution xenografted in zebrafish embryo assessed as inhibition of neovascularization by measuring decrease in fluorescence intensity of GFP labeled blood vessel at 1 uM incubated for 72 hrs by fluorescence microscopic imaging analysis; format: functional, cell-based
[6] = target: Focal adhesion kinase 1 (Homo sapiens) (UniProt Q05397); experiment: Inhibition of PTK2 (unknown origin) at 10 uM in presence of ATP at Km concentration
[7] = target: TGF-beta receptor type-2 (Homo sapiens) (UniProt P37173); experiment: Inhibition of TGFBR2 (unknown origin) at 10 uM in presence of ATP at Km concentration
[8] = Stability in mouse microsomes assessed as half-life; format: ADME, Microsome
A498 [9] = experiment: Inhibition of CXCL8 secretion in human A498 cells at 1 to 2.5 uM incubated for 48 hrs by ELISA; format: functional, cell-based; conditions: dose 1-2.5 µM
[10] = Aqueous solubility of compound in water; format: physicochemical
[11] = Tmax in NOD SCID mouse at 50 mg/kg, po; format: ADME, organism-based; conditions: in vivo
A498 [12] = experiment: Inhibition of cell invasion in human A498 cells cultured as 3D spheroids at 5 uM measured after 7 days by light microscopic imaging analysis relative to control; format: functional; conditions: A498, 168 h, time 7 day
[13] = target: Ephrin type-B receptor 2 (Homo sapiens) (UniProt P29323); experiment: Inhibition of EPHB2 (unknown origin) at 10 uM in presence of ATP at Km concentration
Sequence of Ephrin type-B receptor 2 (Homo sapiens) (P29323 whole entry): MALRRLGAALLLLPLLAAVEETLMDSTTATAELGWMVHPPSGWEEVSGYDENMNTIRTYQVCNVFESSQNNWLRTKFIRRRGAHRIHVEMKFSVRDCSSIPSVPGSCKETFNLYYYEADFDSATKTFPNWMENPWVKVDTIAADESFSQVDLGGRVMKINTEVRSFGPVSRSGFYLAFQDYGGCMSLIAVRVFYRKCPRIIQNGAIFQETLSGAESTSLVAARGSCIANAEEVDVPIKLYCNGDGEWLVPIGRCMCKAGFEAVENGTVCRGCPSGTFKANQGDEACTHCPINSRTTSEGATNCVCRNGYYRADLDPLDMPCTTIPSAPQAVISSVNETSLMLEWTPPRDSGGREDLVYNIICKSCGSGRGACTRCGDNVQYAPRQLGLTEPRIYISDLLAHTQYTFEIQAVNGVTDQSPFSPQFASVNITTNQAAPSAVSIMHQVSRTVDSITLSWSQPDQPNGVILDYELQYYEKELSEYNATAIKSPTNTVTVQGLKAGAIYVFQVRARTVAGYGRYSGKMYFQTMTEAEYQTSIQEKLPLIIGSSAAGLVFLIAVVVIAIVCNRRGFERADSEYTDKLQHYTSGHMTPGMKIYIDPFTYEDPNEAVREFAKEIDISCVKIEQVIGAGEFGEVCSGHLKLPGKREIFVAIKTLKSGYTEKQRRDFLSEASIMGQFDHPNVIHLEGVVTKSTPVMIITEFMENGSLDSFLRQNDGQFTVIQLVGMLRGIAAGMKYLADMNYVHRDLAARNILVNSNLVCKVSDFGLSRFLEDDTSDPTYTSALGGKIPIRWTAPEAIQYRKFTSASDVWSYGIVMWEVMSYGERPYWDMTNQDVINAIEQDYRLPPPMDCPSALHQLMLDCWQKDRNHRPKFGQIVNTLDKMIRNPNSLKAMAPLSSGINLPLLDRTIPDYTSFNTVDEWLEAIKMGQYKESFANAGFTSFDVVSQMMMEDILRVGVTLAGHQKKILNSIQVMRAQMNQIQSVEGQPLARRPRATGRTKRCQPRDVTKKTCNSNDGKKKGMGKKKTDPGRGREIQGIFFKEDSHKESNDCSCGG

RCC4 = experiment: Antiproliferative activity against human RCC4 cells incubated for 48 hrs by XTT assay; format: functional, cell-based; conditions: RCC4, 48 h
[14] = target: Ribosomal protein S6 kinase beta-2 (Homo sapiens) (UniProt Q9UBS0); experiment: Inhibition of RPS6KB2 (unknown origin) at 10 uM in presence of ATP at Km concentration
[15] = target: Tyrosine-protein kinase receptor UFO (Homo sapiens) (UniProt P30530); experiment: Inhibition of AXL (unknown origin) at 10 uM in presence of ATP at Km concentration
Sequence of Tyrosine-protein kinase receptor UFO (Homo sapiens) (P30530 whole entry): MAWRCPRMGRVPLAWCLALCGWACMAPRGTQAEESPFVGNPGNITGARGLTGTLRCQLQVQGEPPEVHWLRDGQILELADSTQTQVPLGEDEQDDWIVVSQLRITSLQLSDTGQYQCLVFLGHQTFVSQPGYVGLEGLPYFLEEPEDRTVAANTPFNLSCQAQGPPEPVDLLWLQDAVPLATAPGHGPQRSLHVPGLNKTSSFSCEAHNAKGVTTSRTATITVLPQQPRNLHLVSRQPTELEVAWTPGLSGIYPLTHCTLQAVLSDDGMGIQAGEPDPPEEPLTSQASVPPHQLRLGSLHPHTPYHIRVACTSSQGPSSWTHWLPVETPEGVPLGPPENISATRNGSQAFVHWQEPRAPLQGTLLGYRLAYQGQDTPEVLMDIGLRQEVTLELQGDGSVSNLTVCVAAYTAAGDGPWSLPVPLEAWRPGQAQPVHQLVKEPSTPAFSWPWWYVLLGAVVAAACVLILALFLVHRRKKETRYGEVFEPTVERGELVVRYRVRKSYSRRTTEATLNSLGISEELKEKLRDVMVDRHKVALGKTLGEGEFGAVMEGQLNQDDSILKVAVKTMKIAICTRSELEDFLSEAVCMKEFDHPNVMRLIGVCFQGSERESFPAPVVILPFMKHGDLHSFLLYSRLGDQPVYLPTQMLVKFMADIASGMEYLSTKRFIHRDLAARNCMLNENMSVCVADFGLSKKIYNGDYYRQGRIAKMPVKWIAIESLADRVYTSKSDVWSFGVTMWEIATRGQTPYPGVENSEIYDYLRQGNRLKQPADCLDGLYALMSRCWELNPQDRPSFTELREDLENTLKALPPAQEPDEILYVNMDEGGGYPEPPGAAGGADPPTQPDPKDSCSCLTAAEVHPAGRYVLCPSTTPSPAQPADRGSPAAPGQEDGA

[16] = target: Misshapen-like kinase 1 (Homo sapiens) (UniProt Q8N4C8); experiment: Inhibition of MINK1 (unknown origin) at 10 uM in presence of ATP at Km concentration
CAL-33 = experiment: Antiproliferative activity against human CAL-33 cells incubated for 48 hrs by XTT assay; format: functional, cell-based; conditions: CAL-33, 48 h
[17] = target: Serine/threonine-protein kinase TAO1 (Homo sapiens) (UniProt Q7L7X3); experiment: Inhibition of TAOK1 (unknown origin) at 10 uM in presence of ATP at Km concentration
[18] = target: Casein kinase I isoform epsilon (Homo sapiens) (UniProt P49674); experiment: Inhibition of CSNK1E (unknown origin) at 10 uM in presence of ATP at Km concentration
Sequence of Casein kinase I isoform epsilon (Homo sapiens) (P49674 whole entry, looked up, canonical isoform): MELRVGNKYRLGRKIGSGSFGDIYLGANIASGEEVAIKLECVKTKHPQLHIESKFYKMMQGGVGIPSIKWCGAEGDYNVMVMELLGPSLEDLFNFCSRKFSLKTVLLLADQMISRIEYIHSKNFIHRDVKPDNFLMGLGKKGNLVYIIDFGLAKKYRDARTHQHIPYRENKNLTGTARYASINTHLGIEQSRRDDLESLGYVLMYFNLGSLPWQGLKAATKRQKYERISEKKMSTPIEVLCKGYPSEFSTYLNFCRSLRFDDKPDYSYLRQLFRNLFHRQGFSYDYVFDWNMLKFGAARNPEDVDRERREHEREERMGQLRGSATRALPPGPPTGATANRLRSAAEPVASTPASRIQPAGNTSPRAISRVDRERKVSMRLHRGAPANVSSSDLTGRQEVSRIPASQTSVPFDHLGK

A498 [19] = experiment: Antimetastatic activity against human A498 cells labeled with vybrant DiD cell-labeling solution xenografted in zebrafish embryo assessed as fold reduction in metastasis area at 1 uM pre-infected with cells for 24 hrs followed by compound addition and measured after 48 hrs by fluorescence microscopic imaging analysis; format: functional
[20] = target: Interleukin-1 receptor-associated kinase 4 (Homo sapiens) (UniProt Q9NWZ3); experiment: Inhibition of IRAK4 (unknown origin) at 10 uM in presence of ATP at Km concentration
[21] = Stability in human plasma assessed as half-life; format: ADME, cell-free
[22] = target: Glycogen synthase kinase-3 beta (Homo sapiens) (UniProt P49841); experiment: Inhibition of GSK3B (unknown origin) at 10 uM in presence of ATP at Km concentration
Sequence of Glycogen synthase kinase-3 beta (Homo sapiens) (P49841 whole entry, looked up): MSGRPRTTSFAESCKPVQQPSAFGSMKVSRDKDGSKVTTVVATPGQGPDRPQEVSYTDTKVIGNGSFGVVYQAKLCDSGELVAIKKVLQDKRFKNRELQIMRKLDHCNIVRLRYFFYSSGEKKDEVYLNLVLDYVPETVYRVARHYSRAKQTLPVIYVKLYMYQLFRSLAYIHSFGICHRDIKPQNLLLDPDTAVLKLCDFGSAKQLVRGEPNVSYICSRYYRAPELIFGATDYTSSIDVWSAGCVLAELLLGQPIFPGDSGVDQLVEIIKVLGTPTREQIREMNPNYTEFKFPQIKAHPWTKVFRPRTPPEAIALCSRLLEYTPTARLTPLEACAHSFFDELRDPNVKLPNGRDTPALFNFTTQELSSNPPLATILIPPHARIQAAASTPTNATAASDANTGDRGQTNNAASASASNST

[23] = target: Hepatocyte growth factor receptor (Homo sapiens) (UniProt P08581); experiment: Inhibition of MET (unknown origin) at 10 uM in presence of ATP at Km concentration
Sequence of Hepatocyte growth factor receptor (Homo sapiens) (P08581 whole entry): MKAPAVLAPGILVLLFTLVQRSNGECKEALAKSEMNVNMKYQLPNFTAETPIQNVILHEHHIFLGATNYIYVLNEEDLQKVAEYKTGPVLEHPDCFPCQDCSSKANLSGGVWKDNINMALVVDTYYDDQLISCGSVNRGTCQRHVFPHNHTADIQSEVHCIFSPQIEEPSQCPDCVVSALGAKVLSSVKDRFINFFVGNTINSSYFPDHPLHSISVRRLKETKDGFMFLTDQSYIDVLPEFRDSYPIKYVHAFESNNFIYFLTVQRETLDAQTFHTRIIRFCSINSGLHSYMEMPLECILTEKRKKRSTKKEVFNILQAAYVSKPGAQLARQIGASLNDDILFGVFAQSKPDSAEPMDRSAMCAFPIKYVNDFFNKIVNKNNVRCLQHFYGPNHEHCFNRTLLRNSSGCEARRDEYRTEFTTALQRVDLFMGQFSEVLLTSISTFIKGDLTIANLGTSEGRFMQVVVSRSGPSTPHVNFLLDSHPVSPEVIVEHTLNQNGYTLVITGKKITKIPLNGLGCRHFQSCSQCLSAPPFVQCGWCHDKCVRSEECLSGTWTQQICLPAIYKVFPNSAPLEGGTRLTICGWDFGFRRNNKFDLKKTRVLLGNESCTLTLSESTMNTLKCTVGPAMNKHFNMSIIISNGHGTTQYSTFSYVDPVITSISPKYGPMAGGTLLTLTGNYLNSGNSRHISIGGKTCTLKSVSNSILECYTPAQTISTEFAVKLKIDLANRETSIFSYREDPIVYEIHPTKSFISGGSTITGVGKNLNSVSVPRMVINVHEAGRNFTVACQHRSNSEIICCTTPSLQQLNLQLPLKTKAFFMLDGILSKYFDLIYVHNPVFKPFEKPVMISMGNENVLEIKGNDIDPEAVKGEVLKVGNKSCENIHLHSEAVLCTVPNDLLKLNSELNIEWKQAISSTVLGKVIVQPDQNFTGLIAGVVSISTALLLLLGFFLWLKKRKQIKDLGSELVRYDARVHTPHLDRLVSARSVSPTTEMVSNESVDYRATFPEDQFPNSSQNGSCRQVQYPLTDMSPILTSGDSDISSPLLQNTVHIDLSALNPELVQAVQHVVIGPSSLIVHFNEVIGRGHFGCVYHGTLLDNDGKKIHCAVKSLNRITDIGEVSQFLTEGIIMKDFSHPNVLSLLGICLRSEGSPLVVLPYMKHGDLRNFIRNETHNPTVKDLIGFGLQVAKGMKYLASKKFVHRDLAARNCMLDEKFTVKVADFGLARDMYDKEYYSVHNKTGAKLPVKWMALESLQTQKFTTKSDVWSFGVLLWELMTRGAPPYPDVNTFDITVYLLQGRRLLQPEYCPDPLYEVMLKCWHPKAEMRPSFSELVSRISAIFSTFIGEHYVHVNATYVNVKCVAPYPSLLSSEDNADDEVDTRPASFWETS

A498 [24] = experiment: Inhibition of CXCL8-induced cell migration in human A498 cells at 0.5 uM incubated for 24 hrs by crystal violet staining based analysis relative to control; format: functional
[25] = Genotoxicity in Salmonella typhimurium TA1535 upto 100 uM in presence of S9 fraction by Ames test; format: toxicity, subcellular; conditions: salmonella enterica subsp. enterica serovar typhimurium, s9, 100 µM
[26] = target: Mitogen-activated protein kinase kinase kinase kinase 2 (Homo sapiens) (UniProt Q12851); experiment: Inhibition of MAP4K2 (unknown origin) at 10 uM in presence of ATP at Km concentration
[27] = target: [Pyruvate dehydrogenase (acetyl-transferring)] kinase isozyme 1, mitochondrial (Homo sapiens) (UniProt Q15118); experiment: Inhibition of PDK1 (unknown origin) at 10 uM in presence of ATP at Km concentration
[28] = target: G protein-coupled receptor kinase 5 (Homo sapiens) (UniProt P34947); experiment: Inhibition of GRK5 (unknown origin) at 10 uM in presence of ATP at Km concentration
[29] = Genotoxicity in Salmonella typhimurium TA1535 upto 100 uM in absence of S9 fraction by Ames test; format: toxicity; conditions: salmonella enterica subsp. enterica serovar typhimurium, s9, 100 µM
[30] = Half-life in NOD SCID mouse at 50 mg/kg, po; format: ADME, organism-based; conditions: in vivo
[31] = Half-life in NOD SCID mouse at 1 mg/kg, iv; format: ADME, organism-based; conditions: in vivo
[32] = target: Mitogen-activated protein kinase 15 (Homo sapiens) (UniProt Q8TD08); experiment: Inhibition of MAPK15 (unknown origin) at 10 uM in presence of ATP at Km concentration
Sequence of Mitogen-activated protein kinase 15 (Homo sapiens) (Q8TD08 whole entry): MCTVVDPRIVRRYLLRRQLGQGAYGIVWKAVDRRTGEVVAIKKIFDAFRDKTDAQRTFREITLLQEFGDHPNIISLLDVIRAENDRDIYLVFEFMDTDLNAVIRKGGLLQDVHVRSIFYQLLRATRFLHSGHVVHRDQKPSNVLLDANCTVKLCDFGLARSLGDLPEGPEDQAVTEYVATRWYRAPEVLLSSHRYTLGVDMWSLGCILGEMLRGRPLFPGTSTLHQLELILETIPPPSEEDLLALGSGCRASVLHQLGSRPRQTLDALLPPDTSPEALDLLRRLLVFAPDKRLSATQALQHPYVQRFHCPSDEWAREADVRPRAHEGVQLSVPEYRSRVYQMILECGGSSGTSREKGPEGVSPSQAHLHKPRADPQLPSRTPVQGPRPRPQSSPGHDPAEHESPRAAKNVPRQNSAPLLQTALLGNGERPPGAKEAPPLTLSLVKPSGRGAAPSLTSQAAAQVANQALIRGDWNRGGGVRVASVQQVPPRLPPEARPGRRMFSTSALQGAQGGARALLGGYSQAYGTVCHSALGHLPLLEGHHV

[33] = target: Calcium/calmodulin-dependent protein kinase type II subunit beta (Homo sapiens) (UniProt Q13554); experiment: Inhibition of CAMK2B (unknown origin) at 10 uM in presence of ATP at Km concentration
[34] = Stability in mouse plasma assessed as compound remaining measured after 120 mins; format: ADME, cell-free; conditions: read-out: Stability
[35] = Stability in human hepatocytes assessed as intrinsic clearance measured per 10^6 cells; format: ADME, cell-based, Hepatocyte; conditions: read-out: CLH
[36] = Toxicity in athymic nude mouse xenografted with human 786-0 cells assessed as effect on behavior at 100 mg/kg, po administered twice daily via gavage for 28 days; format: organism-based; conditions: in vivo, 672 h, time 28 day
[37] = target: T1, Interleukin-8 receptors, CXCR1/CXCR2 (Homo sapiens); experiment: Inhibition of CXCR1/2 pathway in human A498 cells assessed as reduction in ERK phosphorylation at 2.5 uM incubated for 24 to 48 hrs by immunoblot analysis; format: functional, cell-based; conditions: time 24-48 hrs
[38] = test system: Cisplatin and radiotherapy resistant CAL33RR; experiment: Inhibition of cell invasion in human Cisplatin and radiotherapy resistant CAL33RR cells cultured as 3D spheroid at 5 uM measured after 7 days by light microscopic imaging analysis; format: functional, cell-based; conditions: time 7.0 day

inhibition [1]: Active
microsomal CLint [2]: < 116 µL/min/mg
inhibition [3]: inactive
inhibition [4]: inactive
inhibition [6]: inactive
inhibition [7]: inactive
half-life [8]: > 1 h
solubility [10]: 1.2 µM (≈ 0.46 µg/mL)
Tmax [11]: 1.5 h
inhibition [13]: inactive
inhibition [14]: inactive
inhibition [15]: inactive
inhibition [16]: inactive
inhibition [17]: inactive
inhibition [18]: inactive
inhibition [20]: inactive
half-life [21]: > 4.82 h
inhibition [22]: inactive
inhibition [23]: inactive
inhibition [26]: inactive
inhibition [27]: inactive
inhibition [28]: inactive
half-life [30]: 1.8 h
half-life [31]: 0.4 h
inhibition [33]: inactive
remaining at 2 h [34]: 101%
hepatocyte CLint [35]: 35.9 µL/min/1e6 cells
inhibition [37]: Active
SMILES: O=C(Nc1cc(Cl)cc(Cl)c1)Nc1nc2ccc([N+](=O)[O-])cc2s1
Activity (A498 [5]): Active
inhibition (A498 [9]): Active
inhibition at 5 µM (A498 [12]): > 75%
IC50 (RCC4): 2 µM
IC50 (CAL-33): 4 µM
fold change (FC) (A498 [19]): ~4
inhibition at 0.5 µM (A498 [24]): > 50%
Activity [25]: Non-Toxic
Activity [29]: Non-Toxic
inhibition [32]: inactive
Activity [36]: Non-Toxic
inhibition [38]: Active

Source: ChEMBL document CHEMBL5532720, “A Potent Solution for Tumor Growth and Angiogenesis Suppression via an ELR+CXCL-CXCR1/2 Pathway Inhibitor” (ACS Med Chem Lett, 2024)
